Laboratory results published in ChEMBL document CHEMBL6134798, “Classifying covalent protein binders by their targeted binding site” (Bioorg Med Chem Lett, 2025).

How the values were obtained:
Secernin-3 = target: T1, Secernin-3 (Homo sapiens, UniProt Q0VDG4); test: Inhibition of full length human SCRN3 transfected in HEK293T cells; assay type: cell-based
T1 sequence (Q0VDG4 whole entry): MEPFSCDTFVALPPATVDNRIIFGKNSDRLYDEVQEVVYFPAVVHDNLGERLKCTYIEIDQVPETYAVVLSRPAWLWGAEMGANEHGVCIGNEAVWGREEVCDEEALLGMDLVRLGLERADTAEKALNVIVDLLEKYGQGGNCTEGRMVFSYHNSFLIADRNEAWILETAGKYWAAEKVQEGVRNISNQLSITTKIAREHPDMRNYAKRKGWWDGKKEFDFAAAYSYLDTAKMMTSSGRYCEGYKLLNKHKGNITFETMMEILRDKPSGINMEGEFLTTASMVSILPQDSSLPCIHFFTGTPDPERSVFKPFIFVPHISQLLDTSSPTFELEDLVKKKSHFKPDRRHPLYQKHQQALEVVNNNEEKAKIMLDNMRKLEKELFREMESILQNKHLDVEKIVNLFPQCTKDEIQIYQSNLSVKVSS

[1] = target: Epidermal growth factor receptor (Homo sapiens, UniProt P00533); test: Inhibition of EGFR (unknown origin)
Sequence of Epidermal growth factor receptor (P00533 whole entry): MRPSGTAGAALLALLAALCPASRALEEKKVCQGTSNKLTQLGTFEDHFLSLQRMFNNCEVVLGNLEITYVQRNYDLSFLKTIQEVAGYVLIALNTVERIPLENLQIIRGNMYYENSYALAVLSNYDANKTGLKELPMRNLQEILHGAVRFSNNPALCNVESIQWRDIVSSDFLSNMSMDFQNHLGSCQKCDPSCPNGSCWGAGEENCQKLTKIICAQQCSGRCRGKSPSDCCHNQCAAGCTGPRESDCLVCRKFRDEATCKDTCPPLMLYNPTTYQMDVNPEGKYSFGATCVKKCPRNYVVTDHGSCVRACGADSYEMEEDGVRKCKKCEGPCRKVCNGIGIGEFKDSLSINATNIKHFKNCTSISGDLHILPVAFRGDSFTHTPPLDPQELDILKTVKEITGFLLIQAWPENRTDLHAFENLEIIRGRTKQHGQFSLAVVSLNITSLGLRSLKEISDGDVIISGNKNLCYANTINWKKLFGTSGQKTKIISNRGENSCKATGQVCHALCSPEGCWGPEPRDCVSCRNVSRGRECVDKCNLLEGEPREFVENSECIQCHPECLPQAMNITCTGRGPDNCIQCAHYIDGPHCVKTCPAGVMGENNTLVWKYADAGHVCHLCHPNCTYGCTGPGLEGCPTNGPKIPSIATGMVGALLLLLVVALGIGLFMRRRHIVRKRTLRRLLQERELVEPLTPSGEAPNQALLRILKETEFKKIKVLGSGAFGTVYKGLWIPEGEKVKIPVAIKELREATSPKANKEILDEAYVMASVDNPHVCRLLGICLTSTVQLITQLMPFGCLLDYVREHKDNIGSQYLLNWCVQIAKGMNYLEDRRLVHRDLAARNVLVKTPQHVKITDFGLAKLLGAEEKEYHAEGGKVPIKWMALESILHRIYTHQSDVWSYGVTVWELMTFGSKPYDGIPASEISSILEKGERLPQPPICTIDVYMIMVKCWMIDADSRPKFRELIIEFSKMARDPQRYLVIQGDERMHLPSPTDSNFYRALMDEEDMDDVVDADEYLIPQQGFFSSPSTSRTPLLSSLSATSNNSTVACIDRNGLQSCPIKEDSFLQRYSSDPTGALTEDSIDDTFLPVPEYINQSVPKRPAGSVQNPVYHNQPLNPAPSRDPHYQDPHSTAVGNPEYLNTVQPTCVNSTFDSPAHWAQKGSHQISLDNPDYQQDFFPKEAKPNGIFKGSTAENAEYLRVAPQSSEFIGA

K562 = test: Growth inhibition of human K562 cells; assay type: functional

NNc1ccc2ccccc2c1
IC50 (Secernin-3): 200 nM

C=CC(=O)N1CCN(c2ncnc3c(F)c(-c4c(O)cccc4F)c(Cl)cc23)CC1
IC50 [1]: 120 nM

COc1cc(O)c(C=O)cc1-c1c[nH]c2ncc(-c3cncc(C(=O)N(C)C)c3)cc12
GI50 (K562): 55.6 nM
